Columns and labels:
Type in all cases: in vivo
Kochia (Kochia scoparia) [1] = test: Test A preemergence; settings: Preemergence; for Plant response rating, Kochia: 125 g ai/ha, visual injury after approximately 10 d, 0 to 100 scale where 0 is no effect and 100 is complete control; for Kochia plant response rating (0 to 100 scale, 0 is no effect, 100 is complete control): 500 g ai/ha, visual injury approx. 10 d
Excerpt: (§1) Seeds of plant species selected from barnyardgrass (Echinochloa crus-galli), Kochia (Kochia scoparia), ragweed (common ragweed, Ambrosia elatior), ryegrass, Italian (Italian ryegrass, Lolium multiflorum), crabgrass, large (Digitaria sanguinalis), giant foxtail (Setaria faberii), green foxtail (Setaria viridis), morningglory (Ipomoea spp.), pigweed (Amaranthus retroflexus), velvetleaf (Abutilon theophrasti), wheat (Triticum aestivum), and corn (Zea mays) were planted into a blend of loam soil and sand and treated preemergence with a directed soil spray using test chemicals formulated in anon-phytotoxic solvent mixture which included a surfactant.
(§2) At the same time, plants selected from these crop and weed species and also blackgrass (Alopecurus myosuroides), and Galium (catchweed bedstraw, Galium aparine) were planted in pots containing the same blend of loam soil and sand and treated with postemergence applications of test chemicals formulated in the same manner. Plants ranged in height from 2 to 10 cm and were in the one- to two-leaf stage for the postemergence treatment. Treated plants and untreated controls were maintained in a greenhouse for approximately 10 d, after which time all treated plants were compared to untreated controls and visually evaluated for injury. Plant response ratings, summarized in Table A, are based on a 0 to 100 scale where 0 is no effect and 100 is complete control. A dash (-) response means no test result.

[2] = tested on: barnyardgrass (Echinochloa crus-galli); test: Test A preemergence; settings: Preemergence; for Plant response rating, Barnyardgrass: 125 g ai/ha, visual injury after approximately 10 d, 0 to 100 scale where 0 is no effect and 100 is complete control; for Barnyardgrass plant response rating (0 to 100 scale, 0 is no effect, 100 is complete control): 500 g ai/ha, visual injury approx. 10 d
Excerpt: as §1, §2

[3] = tested on: giant foxtail (Setaria faberii); test: Test A preemergence; settings: Preemergence; for Plant response rating, Foxtail, Giant: 125 g ai/ha, visual injury after approximately 10 d, 0 to 100 scale where 0 is no effect and 100 is complete control; for Foxtail, Giant plant response rating (0 to 100 scale, 0 is no effect, 100 is complete control): 500 g ai/ha, visual injury approx. 10 d
Excerpt: as §1, §2

[4] = tested on: pigweed (Amaranthus retroflexus); test: Test A preemergence; settings: Preemergence; for Plant response rating, Pigweed: 125 g ai/ha, visual injury after approximately 10 d, 0 to 100 scale where 0 is no effect and 100 is complete control; for Pigweed plant response rating (0 to 100 scale, 0 is no effect, 100 is complete control): 500 g ai/ha, visual injury approx. 10 d
Excerpt: as §1, §2

[5] = tested on: ragweed (common ragweed, Ambrosia elatior); test: Test A preemergence; settings: Preemergence; for Plant response rating, Ragweed: 125 g ai/ha, visual injury after approximately 10 d, 0 to 100 scale where 0 is no effect and 100 is complete control; for Ragweed plant response rating (0 to 100 scale, 0 is no effect, 100 is complete control): 500 g ai/ha, visual injury approx. 10 d
Excerpt: as §1, §2

[6] = tested on: ryegrass, Italian (Italian ryegrass, Lolium multiflorum); test: Test A preemergence; settings: Preemergence; for Plant response rating, Ryegrass, Italian: 125 g ai/ha, visual injury after approximately 10 d, 0 to 100 scale where 0 is no effect and 100 is complete control; for Ryegrass, Italian plant response rating (0 to 100 scale, 0 is no effect, 100 is complete control): 500 g ai/ha, visual injury approx. 10 d
Excerpt: as §1, §2

[7] = tested on: Galium (catchweed bedstraw, Galium aparine); test: Test A postemergence
Excerpt: as §1, §2

Kochia (Kochia scoparia) [8] = test: Test A postemergence
Excerpt: as §1, §2

[9] = tested on: barnyardgrass (Echinochloa crus-galli); test: Test A postemergence
Excerpt: as §1, §2

[10] = tested on: blackgrass (Alopecurus myosuroides); test: Test A postemergence
Excerpt: as §1, §2

corn (Zea mays) = test: Test A postemergence
Excerpt: as §1, §2

[11] = tested on: giant foxtail (Setaria faberii); test: Test A postemergence
Excerpt: as §1, §2

[12] = tested on: pigweed (Amaranthus retroflexus); test: Test A postemergence
Excerpt: as §1, §2

[13] = tested on: ragweed (common ragweed, Ambrosia elatior); test: Test A postemergence
Excerpt: as §1, §2

[14] = tested on: ryegrass, Italian (Italian ryegrass, Lolium multiflorum); test: Test A postemergence
Excerpt: as §1, §2

[15] = tested on: wheat (Triticum aestivum); test: Test A postemergence
Excerpt: as §1, §2

[16] = 125 g ai/ha, postemergence, visual rating after approx. 10 d, 0 to 100 scale (0 no effect, 100 complete control)
[17] = Postemergence, 500 g ai/ha, 0 to 100 scale where 0 is no effect and 100 is complete control

| Compound | Plant response rating, Kochia (Kochia (Kochia scoparia) [1]) | Kochia plant response rating (0 to 100 scale, 0 is no effect, 100 is complete control) (Kochia (Kochia scoparia) [1]) | Plant response rating, Barnyardgrass [2] | Barnyardgrass plant response rating (0 to 100 scale, 0 is no effect, 100 is complete control) [2] | Plant response rating, Foxtail, Giant [3] | Foxtail, Giant plant response rating (0 to 100 scale, 0 is no effect, 100 is complete control) [3] | Plant response rating, Pigweed [4] | Pigweed plant response rating (0 to 100 scale, 0 is no effect, 100 is complete control) [4] | Plant response rating, Ragweed [5] | Ragweed plant response rating (0 to 100 scale, 0 is no effect, 100 is complete control) [5] | Plant response rating, Ryegrass, Italian [6] | Ryegrass, Italian plant response rating (0 to 100 scale, 0 is no effect, 100 is complete control) [6] | Plant response rating, Galium [7, 16] | Plant response rating, Galium [7, 17] | Plant response rating, Kochia (Kochia (Kochia scoparia) [8]; [16]) | Plant response rating, Kochia (Kochia (Kochia scoparia) [8]; [17]) | Plant response rating, Barnyardgrass [9, 16] | Plant response rating, Barnyardgrass [9, 17] | Plant response rating, Blackgrass [10, 16] | Plant response rating, Blackgrass [10, 17] | other results |
| --- | --- | --- | --- | --- | --- | --- | --- | --- | --- | --- | --- | --- | --- | --- | --- | --- | --- | --- | --- | --- | --- |
| CN1CC(c2ccc(Br)cc2)C(C(=O)Nc2ccc(F)cc2F)C1=O (stereo not drawn) [Compound 566] | 70 | 80 | 90 | 100 | 90 | 100 | 80 | 90 | 60 | 90 | 20 | 70 | 60 | 80 | 80 | 80 | 90 | 90 | 20 | 70 | Plant response rating, Corn (corn (Zea mays); [16]): 0; Plant response rating, Corn (corn (Zea mays); [17]): 40; Plant response rating, Foxtail, Giant [11, 16]: 90; Plant response rating, Foxtail, Giant [11, 17]: 90; Plant response rating, Pigweed [12, 16]: 30; Plant response rating, Pigweed [12, 17]: 60; Plant response rating, Ragweed [13, 16]: 0; Plant response rating, Ragweed [13, 17]: 40; Plant response rating, Ryegrass, Italian [14, 16]: 30; Plant response rating, Ryegrass, Italian [14, 17]: 60; Plant response rating, Wheat [15, 16]: 0; Plant response rating, Wheat [15, 17]: 40 |
| CCc1cccc(C2CN(C)C(=O)C2C(=O)Nc2ccc(F)cc2F)c1 (stereo not drawn) [Compound 570] | 60 | 80 | 100 | 100 | 100 | 100 | 40 | 70 | 0 | 0 | 60 | 90 | 50 | 60 | 50 | 70 | 100 | 100 | 60 | 80 | Plant response rating, Corn (corn (Zea mays); [16]): 60; Plant response rating, Corn (corn (Zea mays); [17]): 80; Plant response rating, Foxtail, Giant [11, 16]: 90; Plant response rating, Foxtail, Giant [11, 17]: 90; Plant response rating, Pigweed [12, 16]: 20; Plant response rating, Pigweed [12, 17]: 20; Plant response rating, Ragweed [13, 16]: 0; Plant response rating, Ragweed [13, 17]: 0; Plant response rating, Ryegrass, Italian [14, 16]: 50; Plant response rating, Ryegrass, Italian [14, 17]: 80; Plant response rating, Wheat [15, 16]: 30; Plant response rating, Wheat [15, 17]: 60 |
| CN1CC(c2cccc(C(F)(F)F)c2)C(C(=O)Nc2ccc(F)cc2F)C1=O (stereo not drawn) [Compound 571] | 60 | 80 | 90 | 90 | 90 | 100 | 30 | 80 | 0 | 0 | 60 | 80 | 50 | 70 | 30 | 60 | 90 | 100 | 70 | 80 | Plant response rating, Corn (corn (Zea mays); [16]): 60; Plant response rating, Corn (corn (Zea mays); [17]): 80; Plant response rating, Foxtail, Giant [11, 16]: 90; Plant response rating, Foxtail, Giant [11, 17]: 90; Plant response rating, Pigweed [12, 16]: 20; Plant response rating, Pigweed [12, 17]: 30; Plant response rating, Ragweed [13, 16]: 0; Plant response rating, Ragweed [13, 17]: 0; Plant response rating, Ryegrass, Italian [14, 16]: 60; Plant response rating, Ryegrass, Italian [14, 17]: 60; Plant response rating, Wheat [15, 16]: 60; Plant response rating, Wheat [15, 17]: 70 |

From US12077503B2, “Substituted cyclic amides and their use as herbicides” (FMC CORPORATION, priority 2015, dated 2024)
